According to PMC10734441, “Comparative biodegradation analysis of three compostable polyesters by a marine microbial community” (Applied and Environmental Microbiology, 2023):

Tests used:
Experiment in all cases: 4-nitrophenol release, absorbance at […] nm, nonlinear regression
Format in all cases: biochemical, Pseudomonas sp. (bin 31)
Details in all cases: phosphate-buffered saline pH 7.4; 20°C (methods: room temperature); 0.1-2.4 mM substrate
Ple-tan1 = system: T1, Ple-tan1
T1 construct: codon-optimized synthetic gene in pCold II, E. coli Origami (DE3), His-tag purified plus size exclusion

Ple-tan2 = system: T2, Ple-tan2
T2 construct: codon-optimized synthetic gene in pCold II, E. coli Origami (DE3), His-tag purified

Ple-solo = system: T3, Ple-solo
T3 construct: codon-optimized synthetic gene in pCold II, E. coli Origami (DE3), His-tag purified plus size exclusion

## CCCC(=O)Oc1ccc([N+](=O)[O-])cc1 [para-nitrophenyl butyrate]
Ple-tan1
  Km: 454 ± 54 µM
Ple-tan2
  Km: 1420 ± 94 µM
Ple-solo
  Km: 254 ± 55 µM
